The values below come from ChEMBL document CHEMBL1201862, “PubChem BioAssay data set” (2004).

SMILES strings stand for the structures.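 Compound exposure: 48 hours, 5 concentrations, 96-well plates. At the GI50, growth is halved.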 Calls of active or inactive are those of the source. Cut-off read from the data, not from the text of the source: active = GI50 up to about 1.1 µM and inactive = higher. Where only a bound is given, the exact number is not on record here.

Test systems include CCRF-CEM; EKVX; HCC 2998; HCT-15; HL-60; HOP-92; Hs-578T; M14; MDA-MB-435; MDA-N; NCI-H522; OVCAR-4; OVCAR-5; OVCAR-8; PC-3; SF-295; SW-620; TK-10; UACC-257; UO-31.
What all share (assay): growth of human tumour cells (NCI), 48 h

In the case of `CCOc1cc2c(cc1O)C(=O)C[C@@H]1[C@@H]2CC[C@]2(C)[C@@H](O)CC[C@@H]12`, the GI50 in the experiment with CCRF-CEM is 0.162 µM (active); in the experiment on EKVX, 10.1 µM (inactive); in the experiment with HCC 2998, 1.36 µM (inactive); in the experiment with HCT-15, 0.0556 µM; in the experiment on HL-60 it was 0.185 µM (active); with HOP-92 it was 9.06 µM (inactive). The GI50 in the experiment on Hs-578T was 0.163 µM (active); with M14, 0.385 µM (active); in the experiment with MDA-MB-435 it was 0.0197 µM (active); in the experiment on MDA-N, 0.0212 µM (active); with NCI-H522, 0.0508 µM (active); in the experiment with OVCAR-4 it was 35.1 µM (inactive). Moreover, the GI50 in the experiment with OVCAR-5 was 20.6 µM (inactive); in the experiment on OVCAR-8 it was 0.321 µM (active); in the experiment on PC-3 it was 2.71 µM (inactive); in the experiment with SF-295 it was 0.158 µM (active); in the experiment with SW-620, 0.126 µM (active); with TK-10, > 13.4 µM (inactive). In addition, the GI50 in the experiment on UACC-257 is 1.21 µM (inactive); with UO-31, 0.482 µM (active).
For the molecule `CC(C)Oc1c(N(Cc2ccccc2)c2ccccc2C2SCCCS2)c(=O)c1=O`, the GI50 with CCRF-CEM is 5.87 µM (inactive); in the experiment on EKVX, 4.51 µM (inactive); with HCC 2998 it was 3.5 µM (inactive); in the experiment with HCT-15, 3.71 µM; with HL-60, 3.98 µM (inactive); with HOP-92, 6.81 µM (inactive). Besides, the GI50 with Hs-578T is 3.44 µM (inactive); with M14, 3.65 µM (inactive); in the experiment on MDA-MB-435 it was 2.74 µM (inactive); with MDA-N it was 3.1 µM (inactive); in the experiment with NCI-H522, 1.88 µM (inactive); in the experiment on OVCAR-4, 9.04 µM (inactive). In addition, the GI50 with OVCAR-5 was 5.97 µM (inactive); in the experiment on OVCAR-8 it was 3.61 µM (inactive); with PC-3, 3.29 µM (inactive); in the experiment with SF-295 it was 2.2 µM (inactive); in the experiment on SW-620, 2.71 µM (inactive); in the experiment with TK-10 it was 8.63 µM (inactive). In addition, the GI50 is 6.9 µM (inactive) with UACC-257 and 6.67 µM (inactive) with UO-31.
In the case of `CCOC1NC(=O)c2ccccc21` (stereo not given), the GI50 with CCRF-CEM was > 100 µM (inactive); in the experiment with EKVX it was > 100 µM (inactive); in the experiment with HCC 2998 it was > 100 µM (inactive); in the experiment with HCT-15, greater than 100 µM; in the experiment with HL-60, > 100 µM (inactive); with HOP-92 it was > 100 µM (inactive). For the same molecule, the GI50 in the experiment on Hs-578T, with M14, in the experiment with MDA-MB-435, in the experiment on MDA-N, with NCI-H522 and in the experiment on OVCAR-4 was > 100 µM (inactive) each time. Besides, the GI50 with OVCAR-5, with OVCAR-8, in the experiment with PC-3, in the experiment on SF-295, in the experiment on SW-620 and in the experiment with TK-10 was > 100 µM (inactive) throughout. For the same molecule, the GI50 in the experiment with UACC-257 and in the experiment on UO-31 was > 100 µM (inactive) throughout.
Take `C=C1CC(O)C2C(=C)C(=O)OC2C2C(C)C(=O)CC12` (stereo not given): the GI50 with CCRF-CEM is 4.08 µM (inactive); in the experiment on EKVX, 15.4 µM (inactive); with HCC 2998 it was 20 µM (inactive); with HCT-15, 4.82 µM; in the experiment on HL-60, 3.01 µM (inactive); in the experiment with HOP-92 it was 13 µM (inactive). For the same molecule, the GI50 in the experiment on Hs-578T was 19.1 µM (inactive); with M14, 11.8 µM (inactive); in the experiment on MDA-MB-435, 11.3 µM (inactive); in the experiment with MDA-N it was 6.87 µM (inactive); in the experiment on NCI-H522, 5.16 µM (inactive); in the experiment on OVCAR-4 it was 17.6 µM (inactive). Moreover, the GI50 in the experiment with OVCAR-5 is 16.1 µM (inactive); with OVCAR-8 it was 21.3 µM (inactive); in the experiment with PC-3, 36.6 µM (inactive); in the experiment with SF-295, 27.6 µM (inactive); in the experiment on SW-620 it was 5.12 µM (inactive); in the experiment with TK-10, 4.82 µM (inactive). For the same molecule, the GI50 is 12.6 µM (inactive) with UACC-257 and 14.7 µM (inactive) in the experiment with UO-31.
With `C[C@@H](NC(=O)Cn1c(Cl)nc2ccccc21)c1ccccc1`, the GI50 in the experiment on CCRF-CEM is > 100 µM (inactive); with EKVX, 26.7 µM (inactive); with HCC 2998, > 100 µM (inactive); in the experiment on HCT-15, greater than 100 µM; with HL-60 it was > 100 µM (inactive); in the experiment on HOP-92, > 100 µM (inactive). Moreover, the GI50 was 51.6 µM (inactive) in the experiment on Hs-578T; > 100 µM (inactive) in the experiment with M14; > 100 µM (inactive) in the experiment with MDA-MB-435; > 100 µM (inactive) in the experiment with MDA-N; 38.2 µM (inactive) with NCI-H522; > 100 µM (inactive) in the experiment on OVCAR-4. Further, the GI50 with OVCAR-5, in the experiment with OVCAR-8, in the experiment on PC-3, in the experiment with SF-295, with SW-620 and with TK-10 was > 100 µM (inactive) throughout. Besides, the GI50 in the experiment with UACC-257 and in the experiment with UO-31 was > 100 µM (inactive) each time.
As to `CCOC(=O)/C=C(/C(=O)OCC)n1ccc(N)nc1=O`, the GI50 was 25.5 µM (inactive) in the experiment with CCRF-CEM; 84.9 µM (inactive) in the experiment with EKVX; > 100 µM (inactive) in the experiment on HCC 2998; greater than 100 µM in the experiment on HCT-15; 70.6 µM (inactive) with HL-60; 53.3 µM (inactive) in the experiment on HOP-92. Also, the GI50 with Hs-578T was > 100 µM (inactive); in the experiment on M14 it was > 100 µM (inactive); with MDA-MB-435 it was > 100 µM (inactive); in the experiment on MDA-N, > 100 µM (inactive); in the experiment on NCI-H522, 23.6 µM (inactive); in the experiment with OVCAR-4 it was 56 µM (inactive). Besides, the GI50 with OVCAR-5 was 47.9 µM (inactive); in the experiment on OVCAR-8, > 100 µM (inactive); in the experiment on PC-3 it was > 100 µM (inactive); with SF-295 it was > 100 µM (inactive); in the experiment on SW-620, 72.3 µM (inactive); in the experiment with TK-10, > 100 µM (inactive). Besides, the GI50 with UACC-257 and in the experiment with UO-31 was > 100 µM (inactive) each time.
With `CCN(CC)c1ccc2cc(-c3nc(O)c4ccccc4n3)c(=N)oc2c1`, the GI50 with CCRF-CEM is > 100 µM (inactive); in the experiment on EKVX it was > 100 µM (inactive); with HCC 2998, > 100 µM (inactive); with HCT-15 it was greater than 100 µM; with HL-60 it was > 100 µM (inactive); in the experiment on HOP-92, > 100 µM (inactive). Also, the GI50 in the experiment on Hs-578T, in the experiment on M14, in the experiment on MDA-MB-435, in the experiment with MDA-N, in the experiment with NCI-H522 and in the experiment with OVCAR-4 was > 100 µM (inactive) in each case. Moreover, the GI50 in the experiment on OVCAR-5, with OVCAR-8, in the experiment on PC-3, with SF-295, with SW-620 and with TK-10 was > 100 µM (inactive) in each case. Also, the GI50 in the experiment with UACC-257 and in the experiment on UO-31 was > 100 µM (inactive) in each case.
Turning to `N#C[BH2-][n+]1ccc(C(=O)NNCC(F)(F)F)cc1`, the GI50 in the experiment on CCRF-CEM is > 100 µM (inactive); with EKVX it was > 100 µM (inactive); with HCC 2998, > 100 µM (inactive); in the experiment on HCT-15 it was greater than 100 µM; with HL-60, > 100 µM (inactive); with HOP-92 it was > 100 µM (inactive). The GI50 in the experiment with Hs-578T, with M14, in the experiment with MDA-MB-435, with MDA-N, in the experiment on NCI-H522 and with OVCAR-4 was > 100 µM (inactive) in each case. In addition, the GI50 with OVCAR-5, in the experiment with OVCAR-8, in the experiment on PC-3, in the experiment on SF-295, in the experiment on SW-620 and in the experiment on TK-10 was > 100 µM (inactive) each time. The GI50 with UACC-257 and with UO-31 was > 100 µM (inactive) in each case.
`N#CSc1ccc(S(N)(=O)=O)cc1`: the GI50 in the experiment on CCRF-CEM was 8.07 µM (inactive); in the experiment on EKVX, > 100 µM (inactive); with HCC 2998, > 100 µM (inactive); in the experiment on HCT-15, 40.4 µM; with HL-60, 14.3 µM (inactive); in the experiment on HOP-92, > 100 µM (inactive). Besides, the GI50 is > 100 µM (inactive) with Hs-578T; 21.6 µM (inactive) in the experiment with M14; 33.3 µM (inactive) in the experiment on MDA-MB-435; 33.2 µM (inactive) with MDA-N; 10.7 µM (inactive) in the experiment with NCI-H522; 30.3 µM (inactive) with OVCAR-4. For the same molecule, the GI50 with OVCAR-5 was 59.8 µM (inactive); in the experiment with OVCAR-8 it was 44.8 µM (inactive); in the experiment on PC-3, 48 µM (inactive); in the experiment on SF-295, > 100 µM (inactive); in the experiment with SW-620 it was 23.9 µM (inactive); in the experiment with TK-10, 75.5 µM (inactive). Further, the GI50 in the experiment with UACC-257 was > 100 µM (inactive); with UO-31, 19.4 µM (inactive).
As to `OC1(c2ccc(Cl)cc2)c2ccccc2C2=NCc3ccccc3CN21` (stereo not given), the GI50 was 7.6 µM (inactive) with CCRF-CEM; 5.48 µM (inactive) with EKVX; 2.18 µM (inactive) in the experiment with HCC 2998; 7.14 µM in the experiment with HCT-15; 4.94 µM (inactive) with HL-60; 13.1 µM (inactive) in the experiment on HOP-92. The GI50 was 14.9 µM (inactive) with Hs-578T; 2.96 µM (inactive) in the experiment on M14; 7.45 µM (inactive) in the experiment with MDA-MB-435; 12.9 µM (inactive) with MDA-N; 14.1 µM (inactive) in the experiment on NCI-H522; 12.6 µM (inactive) in the experiment on OVCAR-4. The GI50 was 13.1 µM (inactive) in the experiment on OVCAR-5; 9.55 µM (inactive) in the experiment on OVCAR-8; 4.74 µM (inactive) with PC-3; 15.3 µM (inactive) with SF-295; 2.69 µM (inactive) in the experiment with SW-620; 14.6 µM (inactive) in the experiment on TK-10. For the same molecule, the results for the GI50 in the experiment with UACC-257 and in the experiment on UO-31 were 14.3 µM (inactive) and 7.98 µM (inactive), respectively.
